Test results from US20150141433A1, “N-ARYLMETHYL SULFONAMIDE NEGATIVE MODULATORS OF NR2A” (Mnemosyne Pharmaceuticals, Inc., priority 2013, published 2015).
Like-named read-outs stand apart in the source and are kept apart here.

Biological target: T1, NR1/NR2A (Homo sapiens, UniProt Q05586+Q12879)
T1 construct: host or cells: HEK293 (tetracycline-inducible NR2A expression)
Experiment: FDSS Ca2+ influx inhibition assay in HEK293 cells expressing NR1/NR2A
Assay type: cell-based
Protocol: Cell Culture and plating: HEK293 cells expressing NR1/NR2A (Chantest, Cleveland, Ohio) were grown to 70-80% confluency as an adherent monolayer in standard tissue culture flasks at 37° C., 5% CO2 per supplier's instructions.
After induction, cell culture medium was removed and cells were rinsed once with Ca^2+ and Mg^2+-free Dulbecco's phosphate buffered saline. Cells were then removed from the flask using TrypLE™ Express (Life Technologies) according to the manufacturer's instructions and collected to 50 ml centrifuge tubes. Following two washes in Ca^27 Mg^2′-free HBSS with 20 mM HEPES (HHnoCa), cells were counted and viability assessed using trypan blue. To load cells with Ca^2′-sensitive dye, they were resuspended in fluo-8 plus Component B (AAT Bioquest Products) diluted in HHnoCa and incubated 15 minutes at 37° C., followed by 30 minutes at room temp (in dark). Cells were then washed and resuspended in HHnoCa to remove extracellular dye and plated in 384-well plates (Falcon, uncoated) at 20,000-30,000 cells/well in a final volume of 25 μL/well.
FDSS Assay: To each well of the plate, 10 μLtest compound, control (MK801) or HHnoCa buffer was added to a final concentration of 10 μM with a final concentration of DMSO of 0.1%. Following 10 minutes pre-incubation in the dark, plates are loaded onto the Hamamatsu FDSS 6000. After collecting baseline fluorescence images, 3 μM glutamate, 3 μM glycine, and 1 mM Ca^2+ in HHnoCa buffer is added to each well, and Ca^2+ is recorded for 3 minutes. Data were processed by computing ratio of fluorescence at the end of data collection to baseline fluorescence to assess degree of Ca^2+ influx inhibition relative to that observed in MK801.

[1] = 3 μM glutamate, 3 μM glycine, 1 mM Ca2+, Ca2+ influx inhibition relative to MK801, read-out: NR2A IC50
[2] = binned NR2A inhibition concentration, read-out: Binned Activity

T1 sequence (Q12879 23-1464, other chains not shown): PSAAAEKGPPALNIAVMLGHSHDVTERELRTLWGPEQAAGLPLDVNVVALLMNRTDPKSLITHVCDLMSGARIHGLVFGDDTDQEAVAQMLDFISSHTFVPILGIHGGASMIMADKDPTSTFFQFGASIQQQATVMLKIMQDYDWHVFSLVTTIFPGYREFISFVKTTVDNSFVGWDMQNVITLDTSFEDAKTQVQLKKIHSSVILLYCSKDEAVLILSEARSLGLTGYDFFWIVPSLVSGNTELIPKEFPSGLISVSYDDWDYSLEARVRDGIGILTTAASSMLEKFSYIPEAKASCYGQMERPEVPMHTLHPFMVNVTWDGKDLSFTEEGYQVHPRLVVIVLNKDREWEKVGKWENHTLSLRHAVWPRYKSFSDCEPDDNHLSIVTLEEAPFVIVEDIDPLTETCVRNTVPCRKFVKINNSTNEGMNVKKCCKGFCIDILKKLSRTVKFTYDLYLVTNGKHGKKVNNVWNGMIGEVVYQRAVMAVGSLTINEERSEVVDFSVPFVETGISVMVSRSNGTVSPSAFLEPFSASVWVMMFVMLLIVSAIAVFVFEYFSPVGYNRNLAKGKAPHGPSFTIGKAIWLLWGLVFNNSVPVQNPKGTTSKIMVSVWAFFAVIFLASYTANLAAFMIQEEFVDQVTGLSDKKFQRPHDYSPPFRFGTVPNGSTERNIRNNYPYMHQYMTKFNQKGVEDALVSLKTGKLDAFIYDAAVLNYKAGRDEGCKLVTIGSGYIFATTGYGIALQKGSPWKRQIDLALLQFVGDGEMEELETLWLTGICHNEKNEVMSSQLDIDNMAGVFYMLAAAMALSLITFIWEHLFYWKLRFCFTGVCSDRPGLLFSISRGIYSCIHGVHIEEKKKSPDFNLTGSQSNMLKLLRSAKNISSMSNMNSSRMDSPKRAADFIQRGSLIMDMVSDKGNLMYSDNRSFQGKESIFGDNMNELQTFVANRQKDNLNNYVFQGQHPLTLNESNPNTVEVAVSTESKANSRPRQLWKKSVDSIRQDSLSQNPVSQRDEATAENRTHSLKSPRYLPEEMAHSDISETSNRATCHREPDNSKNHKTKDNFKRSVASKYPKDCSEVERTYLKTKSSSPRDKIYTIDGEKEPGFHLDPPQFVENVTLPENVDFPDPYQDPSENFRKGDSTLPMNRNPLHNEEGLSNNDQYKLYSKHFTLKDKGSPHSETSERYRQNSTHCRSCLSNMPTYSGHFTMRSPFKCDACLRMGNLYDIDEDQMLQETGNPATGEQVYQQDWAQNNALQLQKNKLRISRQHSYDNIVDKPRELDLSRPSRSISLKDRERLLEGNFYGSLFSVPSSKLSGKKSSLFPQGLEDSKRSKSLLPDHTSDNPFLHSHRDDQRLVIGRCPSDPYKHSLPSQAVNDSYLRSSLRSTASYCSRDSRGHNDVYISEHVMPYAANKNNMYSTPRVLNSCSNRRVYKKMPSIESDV

| IC50 [1] [nM] | Structure (SMILES) | IC50 [2] [nM] |
| --- | --- | --- |
| ≥ 10000 | Cc1csc(CNC(=O)c2cnc(CNS(=O)(=O)c3ccc(F)c(Cl)c3)cn2)n1 [5-(3-chloro-4-fluorobenzenesulfon-amidomethyl)-N-[(4-methyl-1,3-thiazol-2-yl)methyl]pyrazine-2-carboxamide] | > 10000 |
| 108 | Cc1ccncc1CNC(=O)c1cnc(CNS(=O)(=O)c2ccc(F)c(Cl)c2)cn1 [5-(3-chloro-4-fluorobenzenesulfon-amidomethyl)-N-[(4-methylpyridin-3-yl)methyl]pyrazine-2-carboxamide] |  |
| 187 | Cc1ccncc1CNC(=O)c1ccc(CNS(=O)(=O)c2ccc(F)c(Cl)c2)cn1 [5-(3-chloro-4-fluorobenzenesulfon-amidomethyl)-N-[(4-methylpyridin-3-yl)methyl]pyridine-2-carboxamide] |  |
| 1100 | O=C(NCc1cncc(F)c1)c1cnc(CNS(=O)(=O)c2ccc(F)c(Cl)c2)cn1 [5-(3-chloro-4-fluorobenzenesulfon-amidomethyl)-N-[(5-fluoropyridin-3-yl)methyl]pyrazine-2-carboxamide] |  |
| 2430 | Cc1nnc(CNC(=O)c2cnc(CNS(=O)(=O)c3ccc(F)c(Cl)c3)cn2)o1 [5-(3-chloro-4-fluorobenzenesulfon-amidomethyl)-N-[(5-methyl-1,3,4-oxadiazol-2-yl)methyl]pyrazine-2-carboxamide] |  |
| 2830 | Cc1nnc(CNC(=O)c2ccc(CNS(=O)(=O)c3ccc(F)c(Cl)c3)cn2)o1 [5-(3-chloro-4-fluorobenzenesulfon-amidomethyl)-N-[(5-methyl-1,3,4-oxadiazol-2-yl)methyl]pyridine-2-carboxamide] |  |
| 624 | Cc1nnc(CNC(=O)c2cnc(CNS(=O)(=O)c3ccc(F)c(Cl)c3)cn2)s1 [5-(3-chloro-4-fluorobenzenesulfon-amidomethyl)-N-[(5-methyl-1,3,4-thiadiazol-2-yl)methyl]pyrazine-2-carboxamide] |  |
| 1020 | Cc1nnc(CNC(=O)c2ccc(CNS(=O)(=O)c3ccc(F)c(Cl)c3)cn2)s1 [5-(3-chloro-4-fluorobenzenesulfon-amidomethyl)-N-[(5-methyl-1,3,4-thiadiazol-2-yl)methyl]pyridine-2-carboxamide] |  |
| 1250 | Cc1cnc(CNC(=O)c2cnc(CNS(=O)(=O)c3ccc(F)c(Cl)c3)cn2)cn1 [5-(3-chloro-4-fluorobenzenesulfon-amidomethyl)-N-[(5-methylpyrazin-2-yl)methyl]pyrazine-2-carboxamide] |  |
| 2000 | COc1ccc(CNC(=O)c2ccc(CNS(=O)(=O)c3ccc(F)c(Cl)c3)cn2)cn1 [5-(3-chloro-4-fluorobenzenesulfon-amidomethyl)-N-[(6-methoxypyridin-3-yl)methyl]pyridine-2-carboxamide] |  |
| 39.5 | Cc1ncc(CNC(=O)c2cnc(CNS(=O)(=O)c3cccc(Cl)c3)c(C)n2)s1 [5-(3-chlorobenzenesulfon-amidomethyl)-6-methyl-N-[(2-methyl-1,3-thiazol-5-yl)methyl]pyrazine-2-carboxamide] |  |
| 839 | Cc1ncc(CNC(=O)c2cnc(CNS(=O)(=O)c3cccc(Cl)c3)cn2)s1 [5-(3-chlorobenzenesulfon-amidomethyl)-N-[(2-methyl-1,3-thiazol-5-yl)methyl]pyrazine-2-carboxamide] |  |
| 1040 | Cc1ncc(CNC(=O)c2ccc(CNS(=O)(=O)c3cccc(Cl)c3)cn2)s1 [5-(3-chlorobenzenesulfon-amidomethyl)-N-[(2-methyl-1,3-thiazol-5-yl)methyl]pyridine-2-carboxamide] |  |
| 1020 | Cc1ncc(CNC(=O)c2cnc(CNS(=O)(=O)c3ccc(Cl)c(F)c3)c(C)n2)s1 [5-(4-chloro-3-fluorobenzenesulfon-amidomethyl)-6-methyl-N-[(2-methyl-1,3-thiazol-5-yl)methyl]pyrazine-2-carboxamide] |  |
| 7450 | Cc1ncc(CNC(=O)c2ccc(CNS(=O)(=O)c3ccc(Cl)c(F)c3)cn2)s1 [5-(4-chloro-3-fluorobenzenesulfon-amidomethyl)-N-[(2-methyl-1,3-thiazol-5-yl)methyl]pyridine-2-carboxamide] |  |
| 137 | Cc1ncc(CNC(=O)c2cnc(CNS(=O)(=O)c3ccc(F)cc3)c(C)n2)s1 [5-(4-fluorobenzenesulfon-amidomethyl)-6-methyl-N-[(2-methyl-1,3-thiazol-5-yl)methyl]pyrazine-2-carboxamide] |  |
| 5510 | Cc1ncc(CNC(=O)c2cnc(CNS(=O)(=O)c3ccc(F)cc3)cn2)s1 [5-(4-fluorobenzenesulfon-amidomethyl)-N-[(2-methyl-1,3-thiazol-5-yl)methyl]pyrazine-2-carboxamide] |  |
| 2840 | Cc1ncc(CNC(=O)c2ccc(CNS(=O)(=O)c3ccc(F)cc3)cn2)s1 [5-(4-fluorobenzenesulfon-amidomethyl)-N-[(2-methyl-1,3-thiazol-5-yl)methyl]pyridine-2-carboxamide] |  |
| 8060 | Cc1ncc(CNC(=O)c2cnc(CNS(=O)(=O)c3cc(Cl)ccc3F)c(C)n2)s1 [5-(5-chloro-2-fluorobenzenesulfon-amidomethyl)-6-methyl-N-[(2-methyl-1,3-thiazol-5-yl)methyl]pyrazine-2-carboxamide] |  |
| 790 | O=C(NCc1cnccn1)c1ccc(CNS(=O)(=O)c2ccc(F)c(Cl)c2)nc1 [6-(3-chloro-4-fluorobenzenesulfon-amidomethyl)-N-(pyrazin-2-ylmethyl)pyridine-3-carboxamide] |  |
| 11000 | O=C(NCc1cccnc1)c1ccc(CNS(=O)(=O)c2ccc(F)c(Cl)c2)nc1 [6-(3-chloro-4-fluorobenzenesulfon-amidomethyl)-N-(pyridin-3-ylmethyl)pyridine-3-carboxamide] |  |
| 9750 | Cc1ccncc1CNC(=O)c1ccc(CNS(=O)(=O)c2ccc(F)c(Cl)c2)nc1 [6-(3-chloro-4-fluorobenzenesulfon-amidomethyl)-N-[(4-methylpyridin-3-yl)methyl]pyridine-3-carboxamide] |  |
| 630 | Cc1cnc(CNC(=O)c2ccc(CNS(=O)(=O)c3ccc(F)c(Cl)c3)nc2)cn1 [6-(3-chloro-4-fluorobenzenesulfon-amidomethyl)-N-[(5-methylpyrazin-2-yl)methyl]pyridine-3-carboxamide] |  |
| 108 | Cn1ccnc1CNC(=O)c1ccc(CNS(=O)(=O)c2ccc(F)c(Cl)c2)nc1 [6-(3-chloro-4-fluorobenzenesulfon-amidomethyl)-N-[(l-methyl-1H-imidazol-2-yl)methyl]pyridine-3-carboxamide] |  |
| 3770 | Cc1ncc(CNC(=O)c2cnc(CNS(=O)(=O)c3cccs3)cn2)s1 [N-[(2-methyl-1,3-thiazol-5-yl)methyl]-5-(thiophene-2-sulfonamidomethyl) pyrazine-2-carboxamide] |  |
| 4020 | Cc1ncc(CNC(=O)c2ccc(CNS(=O)(=O)c3cccs3)cn2)s1 [N-[(2-methyl-1,3-thiazol-5-yl)methyl]-5-(thiophene-2-sulfonamidomethyl) pyridine-2-carboxamide] |  |

| Structure (SMILES) | IC50 [1] [nM] | IC50 [2] [nM] |
| --- | --- | --- |
| C[C@@H](NC(=O)c1ccc(CNS(=O)(=O)c2ccc(F)c(Cl)c2)nc1)c1cncs1 [6-(3-chloro-4-fluorobenzenesulfon-amidomethyl)-N-[(1R)-1-(1,3-thiazol-5-yl)ethyl]pyridine-3-carboxamide] | ≥ 10000 | > 10000 |
